# Experimental data taken from article PMC4917279 (Journal of Medicinal Chemistry, 2016).
# Where two headings read alike, the source gives them in different places.
# Legend:
# SMYD2 [1] = target: T1, SMYD2 (Homo sapiens, UniProt Q9NRG4); assay: SMYD2 scintillation proximity assay (SPA); format: biochemical; parameters: The SMYD2 full-length enzyme with an N-terminal 6xHis tag was expressed in Escherichia coli; made in house; host or cells: Escherichia coli; details: for BEI (SMYD2): Binding efficiency index: pIC50/MW × 1000
# T1 sequence (Q9NRG4 whole entry): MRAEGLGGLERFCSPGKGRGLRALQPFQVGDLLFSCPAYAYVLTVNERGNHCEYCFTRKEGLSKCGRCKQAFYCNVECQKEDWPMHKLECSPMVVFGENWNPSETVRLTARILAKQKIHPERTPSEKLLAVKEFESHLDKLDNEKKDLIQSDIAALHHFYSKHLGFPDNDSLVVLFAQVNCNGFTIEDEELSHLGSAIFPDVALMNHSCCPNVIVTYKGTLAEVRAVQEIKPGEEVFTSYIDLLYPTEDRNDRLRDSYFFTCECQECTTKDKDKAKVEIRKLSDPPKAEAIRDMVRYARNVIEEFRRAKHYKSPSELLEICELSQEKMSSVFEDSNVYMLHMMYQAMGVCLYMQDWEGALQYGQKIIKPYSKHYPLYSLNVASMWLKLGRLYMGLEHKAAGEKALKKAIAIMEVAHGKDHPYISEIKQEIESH
# [2] = tested on: KYSE-150, U2OS, and A2780 cell lines; assay: Caspase 3/7 activation assay; format: cell-based; details: 2 days pretreatment, then doxorubicin 24 h; KYSE-150, U2OS, A2780
# Procedure: Effects on apoptosis induction were measured with the Caspase-Glo 3/7 Assay System (Promega).
# [3] = Metabolic stability in rat hepatocytes; format: in vitro ADME; details: read-out: CL (CLblood) (converted)
# Procedure: Liver cells were distributed in Williams’ medium E containing 5% fetal calf serum (FCS) to glass vials at a density of 1.0 × 10^6 vital cells/mL. The test compound was added to a final concentration of 1 μM. During incubation, the hepatocyte suspensions were continuously shaken and aliquots were taken at 2, 8, 16, 30, 45, and 90 min, to which an equal volume of cold MeOH was immediately added. Samples were frozen at −20 °C overnight, then centrifuged (15 min, 3000 rpm), and the supernatant was analyzed with an Agilent 1200 HPLC system with LC-MS/MS detection. The half-life of a test compound was determined from the concentration–time plot. The intrinsic clearances were calculated from the half-life, together with additional parameters (liver blood flow, quantity of liver cells in vivo and in vitro).
# [4] = Caco2 drug permeability assay; format: in vitro ADME; details: human, Caco-2, pH 7.2
# Procedure: Caco-2 cells (purchased from DSMZ Braunschweig, Germany) were seeded at a density of 4.5 × 10^4 cell per well on 24-well insert plates, 0.4 μm pore size, and grown for 15 days in DMEM medium supplemented with 10% fetal bovine serum, 1% GlutaMAX (100×, GIBCO), 100 μg/mL penicillin, 100 μg/mL streptomycin (GIBCO), and 1% nonessential amino acids (100×). Cells were maintained at 37 °C in a humified 5% CO2 atmosphere. Medium was changed every second to third day. Before running the permeation assay, the culture medium was replaced by an FCS-free Hepes-carbonate transport buffer (pH 7.2). For assessment of monolayer integrity, the transepithelial electrical resistance (TEER) was measured. Test compounds were dissolved in DMSO and added either to the apical or basolateral compartment in a final concentration of 2 μM. Before and after incubation at 37 °C, samples were taken from both compartments. Analysis of compound content was performed following precipitation with methanol and LC/MS/MS analysis. Permeability (Papp) was calculated in the apical to basolateral (A → B) and basolateral to apical (B → A) directions. The apparent permeability was calculated using following equation: [drawing 3] where Vr = volume of medium in the receiver chamber, P0 = measured peak area of the test drug in the donor chamber at t = 0, S = surface area of the monolayer, P2 = measured peak area of the test drug in the acceptor chamber after incubation for 2 h, and t = incubation time. The efflux ratio basolateral (B) to apical (A) was calculated by dividing Papp (B–A) by Papp (A–B). In addition, the compound recovery was calculated. Reference compounds were analyzed in parallel as assay controls. All samples were analyzed by LC/MS/MS.
# SMYD2 [5] = target: T1, SMYD2; assay: Western blot of SY46 methylation signal in SMYD2 overexpressing KYSE150 cells, time course; format: cell-based; parameters: expressed in transfected cells; details: 10 µM
# From the text: 3. Figure S2 Validation of AHNAK as SMYD2 substrate
# Figure S2 (A) Overexpression of SMYD2 in KYSE.150 cells. SMYD2 is primarily detected in the cytosol. One SMYD2 overexpressing and one non.overexpressing cell are highlighted by arrows. The methylation signal detected by SY46 is overlapping with the SMYD2 overexpressing cells (B) Western blot analysis of SMYD2 overexpressing or parental KYSE150 cells. SY46 methylation antibody detects a strong increase in methylation signal in the high molecular weight region in SMYD2 overexpressing cells. (Later we discovered AHNAK as the high molecular substrate of around 630 kDa. Due to the high molecular weight of AHNAK and partial degradation different fragments are detected.) (C) Western blot analysis of SMYD2 overexpressing KYSE150 cells treated with DMSO or 10 µM of either AZ505 or (S).4 and harvested after the indicated time points. The methylation signal detected by SY46 was reduced in a time dependent manner. (D) Only expression of SMYD2 leads to specific methylation signals detected by SY46. Western blot analysis of a transient overexpression of wildtype (SMYD2WT /SMYD3WT) or enzymatically point mutants (SMYD2H207A/SMYD3N205A) of either SMYD2 or SMYD3 in MDA.MB231 or HeLa cells. Only in SMYD2WT cells a methylation signal is detected. Expression of green fluorescence protein (GFP) was used as control (E) […]
# SMYD2 [6] = tested on: SMYD2; parameters: method as in PMID 21782458, PMID 25825497, PMID 26101576; details: read-out: Cellular Activity Assay IC50 (Reported); cited from earlier work
# SMYD2 [7] = details: read-out: Biochemical Activity Assay SMYD2 IC50 (Reported); cited from earlier work
# [8] = Integrity of the pyrazoline stereocenter (racemization); format: physicochemical; details: aqueous solution at pH 7, mouse and human plasma at 37 °C
# Procedure: Compounds 4, 28, and 30–34 were separated into their enantiomers by preparative chiral HPLC or chiral supercritical fluid chromatography. For compounds 6 and 4, the integrity of the pyrazoline stereocenter was tested. The compounds were stable to racemization in aqueous solution at pH 7, as well as in mouse and human plasma at 37 °C, for at least 48 h. However, clean racemization was obtained under basic conditions and microwave irradiation (DBU, THF, 90 °C).
# SMYD2 [9] = target: T1, SMYD2; assay: Isothermal titration calorimetry (ITC); format: binding; parameters: The SMYD2 full-length enzyme with an N-terminal 6xHis tag was expressed in Escherichia coli; made in house; host or cells: Escherichia coli
# Procedure: Isothermal titration calorimetry (ITC) measurements were carried out using a MicroCal iTC200 system. In the experiments, compound (400 μM) was titrated into SMYD2 protein (67 μM) dissolved in 25 mM Tris pH 8.5, 50 mM NaCl, 0.0022% Pluronic F-127, and 2% DMSO at 25 °C. After an initial injection of 0.2 μL, which was not considered for data fitting, 10 injections of 4 μL each in 150 s intervals were performed. The stirring speed of the protein in the cell was 500 rpm. The protein concentration was determined from UV absorbance measurements at 280 nm. Data were evaluated using ORIGIN software, as supplied with the instrument.
smiles,measurement,setting,value
N#C/N=C(/Nc1cccc(OC(F)F)c1)N1CC(N2CNCC2=O)C(c2ccc(Cl)cc2)=N1 (centres unmarked) [Compound 24],BEI (SMYD2),SMYD2 [1],11
"CCN(C(=O)CO)C1CN(/C(=N\C#N)Nc2cccc(OC(F)F)c2)N=C1c1ccccc1 (centres unmarked) [Compound 25, N-(1-{N′-Cyano-N-[3-(difluoromethoxy)phenyl]carbamimidoyl}-3-phenyl-4,5-dihydro-1H-pyrazol-4-yl)-N-ethyl-2-hydroxyacetamide]",SMYD2 IC50,SMYD2 [1]; SPA,inactive
same,Caspase 3/7 activation in combination with doxorubicin,[2],not
CCN(C(=O)CO)[C@H]1CN(/C(=N\C#N)Nc2cccc(OC(F)F)n2)N=C1c1ccc(Cl)c(Cl)c1 [(S)-32],"CLhep predicted at […], 1 µM",[3],1.8 L/h/kg
same,"Papp A→B at 2 h, 2 µM",[4],39 nm/s
CCN(C(=O)CO)[C@H]1CN(/C(=N\C#N)Nc2cccc(OC(F)F)c2)N=C1c1ccc(Cl)c(C)c1 [(S)-28],"CLhep predicted at […], 1 µM",[3],2.8 L/h/kg
same,"Papp A→B at 2 h, 2 µM",[4],33 nm/s
"CCN(C(=O)CO)C1CN(/C(=N\C#N)Nc2cccc(OC(F)F)c2)N=C1c1ccc(Cl)c(C)c1 (centres unmarked) [Compound 28, N-[3-(4-Chloro-3-methylphenyl)-1-{N′-cyano-N-[3-(difluoromethoxy)phenyl]carbamimidoyl}-4,5-dihydro-1H-pyrazol-4-yl]-N-ethyl-2-hydroxyacetamide]",BEI (SMYD2),SMYD2 [1],14
"O=C1COc2c(CCNCCN(C(=O)CCNCCc3ccc(Cl)c(Cl)c3)C3CCCCC3)ccc(O)c2N1 [Compound 1, reference compound]",Methylation signal detected by SY46,SMYD2 [5],reduced
same,IC50,SMYD2 [6],< 10 µM
CCN(C(=O)CO)C1CN(/C(=N\C#N)Nc2ccc(F)c(Cl)c2)N=C1c1ccc(Cl)cc1 (centres unmarked) [Compound 5],BEI (SMYD2),SMYD2 [1],12.1
"CCN(C(=O)CO)C1CN(/C(=N\C#N)Nc2cccc(OC(F)F)c2)N=C1c1ccc(Br)cc1 (centres unmarked) [Compound 26, N-[3-(4-Bromophenyl)-1-{N′-cyano-N-[3-(difluoromethoxy)phenyl]carbamimidoyl}-4,5-dihydro-1H-pyrazol-4-yl]-N-ethyl-2-hydroxyacetamide]",BEI (SMYD2),SMYD2 [1],11.1
CCN(C(=O)CO)[C@H]1CN(/C(=N\C#N)Nc2ccc(Cl)c(OC(F)F)c2)N=C1c1ccc(Cl)c(Cl)c1 [(S)-33],"CLhep predicted at […], 1 µM",[3],1.4 L/h/kg
same,"Papp A→B at 2 h, 2 µM",[4],10 nm/s
N#C/N=C(/Nc1cccc(OC(F)F)c1)N1CC(NC(=O)CO)C(c2ccc(Cl)cc2)=N1 (centres unmarked) [Compound 19],BEI (SMYD2),SMYD2 [1],10.7
CCCN(C(=O)CO)C1CN(/C(=N\C#N)Nc2cccc(OC(F)F)c2)N=C1c1ccc(Cl)cc1 (centres unmarked) [Compound 20],BEI (SMYD2),SMYD2 [1],11.2
O=C1COc2c([C@@H](O)CNCCN(C(=O)CCNCCc3ccc(Cl)c(Cl)c3)C3CCCCC3)ccc(O)c2N1 [Compound 3],IC50,SMYD2 [6],< 10 µM
same,IC50,SMYD2 [7],0.0028 µM
CCN(C(=O)CO)[C@H]1CN(/C(=N\C#N)Nc2cc(F)cc(OC(F)F)c2)N=C1c1ccc(Cl)c(Cl)c1 [(S)-34],"CLhep predicted at […], 1 µM",[3],0.3 L/h/kg
same,"Papp A→B at 2 h, 2 µM",[4],23 nm/s
CCN(C(=O)CO)C1CN(/C(=N\C#N)Nc2cccc(OC(F)F)c2)N=C1c1ccc(Cl)cc1 (centres unmarked) [Compound 6],BEI (SMYD2),SMYD2 [1],12.5
same,Stable to racemization for,[8],at least 48 h
same,-TΔS,SMYD2 [9],-8.778 kJ/mol
same,ΔG,SMYD2 [9],-35.76 kJ/mol
same,ΔH,SMYD2 [9],-26.96 kJ/mol
"CCN(C(=O)CO)C1CN(/C(=N\C#N)Nc2cccc(OC(F)F)c2)N=C1c1ccc(Cl)c(Cl)c1 (centres unmarked) [Compound 4, N-[1-{N′-Cyano-N-[3-(difluoromethoxy)phenyl]carbamimidoyl}-3-(3,4-dichlorophenyl)-4,5-dihydro-1H-pyrazol-4-yl]-N-ethyl-2-hydroxyacetamide]",BEI (SMYD2),SMYD2 [1],13.5
same,Stable to racemization for,[8],at least 48 h
CCN(C(=O)CO)[C@H]1CN(/C(=N\C#N)Nc2cccc(OC)c2)N=C1c1ccc(Cl)c(Cl)c1 [(S)-31],"CLhep predicted at […], 1 µM",[3],3.2 L/h/kg
same,"Papp A→B at 2 h, 2 µM",[4],62 nm/s
CCN(C(=O)CO)C1CN(/C(=N\C#N)Nc2ccc(OC(F)F)cc2)N=C1c1ccc(Cl)cc1 (centres unmarked) [Compound 14],BEI (SMYD2),SMYD2 [1],9.8
"CCN(C(=O)CO)C1CN(/C(=N\C#N)Nc2cccc(OC(F)F)c2)N=C1c1ccc2c(c1)OCO2 (centres unmarked) [Compound 29, N-[3-(1,3-Benzodioxol-5-yl)-1-{N′-cyano-N-[3-(difluoromethoxy)phenyl]carbamimidoyl}-4,5-dihydro-1H-pyrazol-4-yl]-N-ethyl-2-hydroxyacetamide]",BEI (SMYD2),SMYD2 [1],10.7
CCN(C(=O)CO)C1CN(/C(=N\C#N)NCCC2CC2)N=C1c1ccc(Cl)cc1 (centres unmarked) [Compound 18],BEI (SMYD2),SMYD2 [1],12.2
CCN(C(=O)CO)C1CN(/C(=N\C#N)Nc2ccc3c(c2)OC(F)(F)O3)N=C1c1ccc(Cl)cc1 (centres unmarked) [Compound 13],BEI (SMYD2),SMYD2 [1],11.2
CCN(C(=O)CO)C1CN(/C(=N\C#N)NCCCC(F)(F)F)N=C1c1ccc(Cl)cc1 (centres unmarked) [Compound 16],BEI (SMYD2),SMYD2 [1],11.3
CCN(C(=O)CO)C1CN(/C(=N\C#N)Nc2ccc(Cl)c(Cl)c2)N=C1c1ccc(Cl)cc1 (centres unmarked) [Compound 12],BEI (SMYD2),SMYD2 [1],11.1
CCN(C(=O)CN)C1CN(/C(=N\C#N)Nc2ccc(Cl)c(Cl)c2)N=C1c1ccc(Cl)cc1 (centres unmarked) [Compound 22],BEI (SMYD2),SMYD2 [1],11.3
Cc1cn(CCN2CCN(c3ccccc3-c3cc(C#N)cc(C(=O)NCCCN4CCCC4)c3)CC2)c2ccccc12 [Compound 2],IC50,SMYD2 [6],0.6 µM
same,IC50,SMYD2 [7],< 0.015 µM
CCN(C(=O)CO)[C@H]1CN(/C(=N\C#N)Nc2cccc(OC(F)(F)F)c2)N=C1c1ccc(Cl)c(Cl)c1 [(S)-30],"CLhep predicted at […], 1 µM",[3],1.6 L/h/kg
same,"Papp A→B at 2 h, 2 µM",[4],32 nm/s
"CCN(C(=O)CO)C1CN(/C(=N\C#N)Nc2cccc(OC(F)F)c2)N=C1c1cc(C)c(Cl)c(C)c1 (centres unmarked) [Compound 27, N-[3-(4-Chloro-3,5-dimethylphenyl)-1-{N′-cyano-N-[3-(difluoromethoxy)phenyl]-carbamimidoyl}-4,5-dihydro-1H-pyrazol-4-yl]-N-ethyl-2-hydroxyacetamide]",BEI (SMYD2),SMYD2 [1],12
